Consider 18 molecules from PubChem BioAssay (NCI).

Test systems include COLO 205 colon; HCC-2998 colon; MALME-3M melanoma; RPMI-8226 leukemia; SF-539 CNS; UACC-257 melanoma; A498 renal; HS 578T breast; BT-549 breast.
Experiment in all cases: NCI tumour cell line growth inhibition, 48 h

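Cells were grown in 96-well plates and exposed to each compound for 48 hours at five concentrations; endpoints were interpolated linearly between bracketing concentrations, or set to the highest concentration if not reached. Here, GI50 denotes the concentration required for 50% inhibition of growth. At the TGI there is no net growth.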

Regarding `Cc1cc2c(C)nn(Cc3ccc(Cl)cc3)c2c(C#N)c1C`, the TGI in the experiment on COLO 205 colon, with HCC-2998 colon, with MALME-3M melanoma, in the experiment with RPMI-8226 leukemia, in the experiment with SF-539 CNS and in the experiment with UACC-257 melanoma was over 100 µM in each case.
With `COC(=O)Nc1nc2ccc(Br)cc2[nH]1`, the TGI in the experiment with A498 renal is over 100 µM; with COLO 205 colon, over 100 µM; in the experiment on HCC-2998 colon, over 100 µM; in the experiment with MALME-3M melanoma, over 100 µM; with RPMI-8226 leukemia, over 100 µM; with SF-539 CNS, 57.3 µM. The molecule also yielded a TGI in the experiment with UACC-257 melanoma of over 100 µM.
In the case of `CC1(C)CCC[C@]2(C)[C@H]3[C@H](C#N)c4cc(O)c(O)cc4O[C@@]3(C)CC[C@@H]12`, the TGI in the experiment with A498 renal, in the experiment with COLO 205 colon, in the experiment on HCC-2998 colon, with HS 578T breast, in the experiment with RPMI-8226 leukemia and in the experiment with SF-539 CNS was over 10 µM each time. The same molecule returned a TGI in the experiment on UACC-257 melanoma of over 10 µM.
For the molecule `Oc1ccc2oc3ncc(Br)c(-c4ccccc4)c3c2c1`, the GI50 with BT-549 breast is 76.9 µM; in the experiment on RPMI-8226 leukemia it was over 100 µM; in the experiment on UACC-257 melanoma, over 100 µM. For the same molecule, the TGI in the experiment with BT-549 breast, in the experiment on RPMI-8226 leukemia and in the experiment on UACC-257 melanoma was over 100 µM throughout.
Consider `COc1ccccc1NC(=O)CC(=O)N/N=C/c1ccc(N(CCC#N)S(=O)(=O)c2ccccc2)cc1`, for which the TGI in the experiment on COLO 205 colon, with HCC-2998 colon, in the experiment on MALME-3M melanoma, in the experiment on RPMI-8226 leukemia and with UACC-257 melanoma was over 100 µM each time.
On to `CCCSS[C@H]1NC(=O)[C@H]1NC(=O)COc1ccccc1`, for which the TGI was 70.3 µM in the experiment on A498 renal; 25 µM in the experiment with COLO 205 colon; 29.9 µM in the experiment with HCC-2998 colon; 26.9 µM in the experiment on MALME-3M melanoma; 88.1 µM with RPMI-8226 leukemia; 29.5 µM in the experiment on SF-539 CNS. Also, the TGI in the experiment on UACC-257 melanoma turned out to be 27.8 µM.
In the case of `COc1cccc(NC(=O)/C(Cc2nc3ccccc3nc2C)=N/NC(=O)C[n+]2ccccc2)c1`, the TGI with A498 renal was over 100 µM; with COLO 205 colon it was 44.6 µM; with HCC-2998 colon, over 100 µM; in the experiment with MALME-3M melanoma, over 100 µM; with RPMI-8226 leukemia it was 68.1 µM; in the experiment with SF-539 CNS, over 100 µM. Moreover, the TGI in the experiment with UACC-257 melanoma was over 100 µM.
For `Cc1cc(C)cc(NC(N)=S)c1`, the TGI in the experiment on A498 renal is over 100 µM; in the experiment with COLO 205 colon it was 59.1 µM; with HCC-2998 colon it was over 100 µM; in the experiment on MALME-3M melanoma, over 100 µM; in the experiment on RPMI-8226 leukemia, over 100 µM; in the experiment on SF-539 CNS it was over 100 µM. Further, the TGI in the experiment with UACC-257 melanoma was over 100 µM.
`CCN(CC)C(=O)C(C)n1cc(C)c(=O)[nH]c1=O` (configuration not stated): the TGI in the experiment on COLO 205 colon, in the experiment on HCC-2998 colon, with MALME-3M melanoma, in the experiment with RPMI-8226 leukemia and with SF-539 CNS was over 100 µM in each case.
For the molecule `COc1ccc(C2ON(c3cccc(C)n3)CC=C2C)cc1` (configuration not stated), the TGI with COLO 205 colon, in the experiment with HCC-2998 colon, in the experiment with MALME-3M melanoma, in the experiment on RPMI-8226 leukemia, with SF-539 CNS and with UACC-257 melanoma was over 100 µM each time.
`COC(C)(C)C/C=C/C(C)=C/C=C/C(C)=C\C=C\C(C)=C\C=C\C=C(C)\C=C\C=C(C)\C=C\C=C(C)\C=C\CC(C)(C)OC`: the GI50 with A498 renal, in the experiment on COLO 205 colon, in the experiment with HCC-2998 colon, with MALME-3M melanoma, with RPMI-8226 leukemia and with SF-539 CNS was over 150 µg/mL throughout. Further, the GI50 with UACC-257 melanoma is over 150 µg/mL. The TGI with A498 renal, in the experiment on COLO 205 colon, in the experiment with HCC-2998 colon, in the experiment on MALME-3M melanoma, in the experiment with RPMI-8226 leukemia and in the experiment on SF-539 CNS was over 150 µg/mL in each case. This molecule also gave a TGI in the experiment with UACC-257 melanoma of over 150 µg/mL.
Take `N#CC1CC2(CCN1C(=O)c1ccccc1)OCCO2` (configuration not stated): the TGI in the experiment on A498 renal, in the experiment with COLO 205 colon, with HCC-2998 colon, in the experiment on MALME-3M melanoma, in the experiment on RPMI-8226 leukemia and in the experiment with SF-539 CNS was over 100 µM each time. In the experiment on UACC-257 melanoma, this molecule registered a TGI of over 100 µM.
For `O=C(NC12CC3CC(CC(C3)C1)C2)C(=O)c1c[nH]c2ccccc12`, the TGI with COLO 205 colon was 33.5 µM; with HCC-2998 colon it was 28 µM; in the experiment with MALME-3M melanoma, 28.3 µM; in the experiment with RPMI-8226 leukemia, 55.3 µM; with SF-539 CNS, 26.7 µM; in the experiment with UACC-257 melanoma, 25.9 µM.
Take `CC(=O)C1=C(O)CC2CC3c4[nH]c5ccccc5c4CCN3CC2C1` (configuration not stated): the TGI in the experiment with A498 renal, in the experiment with COLO 205 colon, with HCC-2998 colon, in the experiment on MALME-3M melanoma, with SF-539 CNS and in the experiment on UACC-257 melanoma was over 100 µM in each case.
In the case of `N#CC1(C#N)C(C#N)(C#N)C12CCCCCC2`, the TGI was 34.1 µM with A498 renal; 33.7 µM with COLO 205 colon; 35.3 µM with HCC-2998 colon; 31 µM in the experiment on MALME-3M melanoma; over 35.1 µM in the experiment on RPMI-8226 leukemia; 18 µM in the experiment on SF-539 CNS. In the experiment with UACC-257 melanoma, the TGI came out at 27.4 µM.
In the case of `O=C(c1ccccc1)c1cn(/N=C\c2ccccc2)c(=O)nc1-c1ccccc1`, the TGI in the experiment on A498 renal, with COLO 205 colon, in the experiment on HCC-2998 colon, in the experiment with MALME-3M melanoma, in the experiment with SF-539 CNS and in the experiment on UACC-257 melanoma was over 100 µM each time.
Consider `Clc1ccc(C(n2cc(Br)cn2)n2cc(Br)cn2)cc1`, for which the TGI in the experiment with A498 renal worked out at 33.1 µM; with COLO 205 colon, 33.8 µM; with HCC-2998 colon it was 31.8 µM; with MALME-3M melanoma it was 31.7 µM; in the experiment on RPMI-8226 leukemia, 60.2 µM; in the experiment on UACC-257 melanoma, 29.3 µM.
On to `CC(C)(c1ccccc1)c1ccc(OC#N)cc1`, for which the TGI with A498 renal is over 100 µM; in the experiment on COLO 205 colon, over 56.5 µM; with HCC-2998 colon, over 100 µM; with MALME-3M melanoma it was over 100 µM; in the experiment on RPMI-8226 leukemia, over 70.1 µM; in the experiment on SF-539 CNS it was over 100 µM. In the experiment on UACC-257 melanoma, this molecule displayed a TGI of over 100 µM.
